Test results: patent US6713268B2, “Methods of identifying ocular hypotensive compounds having reduced hyperpigmentation” (Allergan, Inc., priority 2001, dated 2004)
Entries after “also recorded” stand apart in the source; their conditions may differ. Like-named read-outs stand apart in the source and are kept apart here.

Assays:
[1] = test system: S91 "Cloudman" melanoma cell line; settings: cited from earlier work
[2] = test system: S91 cells; settings: native S91 cells; cited from earlier work
[3] = target: T1, FP receptor (Homo sapiens, UniProt P43088); design: host or cells: S91 'Cloudman' melanoma cells, stably transfected; settings: cited from earlier work
T1 sequence (P43088 whole entry): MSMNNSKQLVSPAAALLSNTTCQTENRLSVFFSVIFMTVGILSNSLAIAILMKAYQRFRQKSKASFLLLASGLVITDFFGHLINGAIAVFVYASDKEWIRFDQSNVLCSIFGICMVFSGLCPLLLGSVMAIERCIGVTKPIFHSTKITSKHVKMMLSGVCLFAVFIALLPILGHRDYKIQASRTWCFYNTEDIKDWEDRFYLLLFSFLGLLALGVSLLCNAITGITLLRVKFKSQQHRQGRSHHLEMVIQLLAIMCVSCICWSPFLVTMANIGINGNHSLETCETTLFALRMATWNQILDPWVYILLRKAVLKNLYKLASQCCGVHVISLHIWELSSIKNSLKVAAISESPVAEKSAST

[4] = test system: S91 melanoma cells co-cultured with human dermal fibroblasts; assay: DOPA oxidase (tyrosinase) activity in S91 melanoma cells in transwell co-culture with human dermal fibroblasts; type: cell-based; settings: increasing concentrations 10^−9 to 10^−5 M, 4 days
Description: (§1) Human dermal fibroblasts and S91 melanoma cells are cultured in low-glucose Dulbecco's Modified Eagle Medium (DMEM) containing 10% fetal calf serum (FCS) supplemented with 2 mM L-glutamine, 100 mg/l sodium pyruvate, 100 U/ml penicillin G, 100 […] and 250 ng/ml amphotericin B at 37° C. with 5% CO2. For tyrosinase and melanogenesis assays, the FCS concentration is reduced to 1% during the incubation period.
(§2) S91 cells are plated at 10^5 cells/well in 6-well plates and allowed to attach overnight. For transwell studies, cells from a human dermal fibroblast cell line are plated on the transwell insert at 10^3 cells/well and allowed to attach overnight. Melanoma cells are plated in an initial excess over fibroblasts; preferably at a ratio between about 1:30 and about 1:1000, more preferably at a ratio between about 1:50 and about 1:300; most preferably at a ratio of about 1:100. For primary cells, cells are cultured at a ratio of fibroblasts to melanocytes of about 1:2 to about 1:50; preferably about 1:5 to about 1:20, even more preferably about 1:10. The added test agents generally stimulate fibroblast proliferation; thus the use of the transwell permits separate enumeration of the melanocytes.
(§3) Test agents are added every other day of the assay period, with no exchange of medium.
(§4) For DOPA oxidase (tyrosinase) activity, the cells were incubated for four days in this case and the S91 cells were collected in a lysis buffer. The cell suspension was subjected to one freeze/thaw cycle (−80° C.) and vortexed to extract the cytosolic cell contents. After centrifugation for 30 minutes at 16,000×g at 4° C., aliquots of the supernatant were used in a Bradford assay to determine protein concentration or incubated with d-DOPA or l-DOPA as substrates. The optical density was measured for up to 6 hours at 490 nm.
Cloudman S91 melanoma cells (ATCC CCL-53.1) were cultured either in the presence or absence of human dermal fibroblast cells (ATCC CRL-2097) as described above. The added drugs were: arachidonic acid, anandamide, Compound C, Compound A, Compound D, Compound […], and Compound E.

[5] = test system: S91 melanoma cells; assay: Cell proliferation assay of S91 melanoma cells; type: cell-based
Description: as §1, §2, §3
For the cell proliferation assay, melanoma cells were washed with Hanks BSS, trypsinized and counted with a hemacytometer.

[6] = target: T1, FP receptor; assay: FLIPR calcium signaling in HEK-293 cells stably transfected with the human FP receptor; type: cell-based; design: expressed in transfected cells; host or cells: HEK-293; settings: HEK-293 human FP; for concentration at which FP receptor stimulation plateaus / concentration at which the FP receptor is stimulated (calcium signal): FLIPR, Fluo-4; for concentration at which the FP receptor is stimulated (calcium signal): onset of effect; for stimulation of the human FP receptor: calcium signal, about 10^−11 to 10^−8 M
Description: Human embryonic kidney cells of line HEK-293 are stably transfected with an expression vector encoding the human FP receptor. Cells were cultured in low Glucose Dulbecco's Modified Eagles Medium containing 10% fetal calf serum, 2 mM L-glutamine, 100 mg/l sodium pyruvate, 100 U/ml penicillin G, […] streptomycin, 250 μg/ml G418 200 μg/ml hygromycin and 250 ng/ml amphotericin B at 37° C. with 5% CO2. Cells were seeded on poly-D-lysine-coated 96-well plates at 5000/well, and cultured overnight before the experiment. The cells are cultured in the presence, respectively, of: latanoprost-free acid, fluprostenol, Compound A, Compound B, and assayed using a FLIPR (fluorescence imaging plate reader) using the calcium activated fluorescent dye Fluo-4 as an indicator of free intracellular calcium. As stimulation of the FP receptor is known to cause in increase in free intracellular calcium release, this experiment is designed to determine when the test compounds are capable of stimulating the human FP receptor.

[7] = test system: S91 melanoma cells; assay: DOPA oxidase (tyrosinase) activity in S91 melanoma cells cultured alone; type: cell-based
Description: as §1, §2, §3, §4
Cloudman S91 melanoma cells (ATCC CCL-53.1) were cultured either in the presence or absence of human dermal fibroblast cells (ATCC CRL-2097) as described above. […]

[8] = test system: S91 melanoma cells; assay: Melanin assay in S91 cells; type: cell-based; settings: S91 cells not in transwell cultures
Description: as §1
as §2, with “The added test agents generally stimulate fibroblast proliferation; thus the use of the transwell permits separate enumeration of the melanocytes.” left out
For the melanin assay, cells were incubated for 5 days. […] After centrifugation for 30 min at 16,000×g at room temperature, the optical density of the supernatant was measured at 475 nm and compared to a standard curve obtained with synthetic melanin.

[9] = test system: iris; settings: patients; cited from earlier work
[10] = test system: iris; assay: One year topical monkey study, darkening of the iris; settings: once daily 35 microliter drop in one eye for one year; scale 0-3; untreated eyes baseline 1
Description: (§5) The other eye is left untreated. A total of 8 animals is treated within each treatment group. At the end of the one year study period darkening of the treated eye is compared to a photograph of the same eye prior to treatment, and scored using the following scale:

[11] = test system: melanocytes; settings: cited from earlier work
[12] = test system: iris; settings: monkey, in vivo
Description: as §5

For CCCCC[C@H](O)/C=C/[C@@H]1[C@@H](C/C=C\CCCC(=O)O)[C@@H](O)C[C@H]1O [PGF2α], the “melanogenesis / melanin production” value [1] is given as “only at quite high concentrations”, the calcium signal [2] is given as “failed to stimulate a calcium signal” and the “DOPA oxidase (tyrosinase) activity and melanin formation compared with native S91 cells” value ([3]; FP receptor transfectants) is given as “indistinguishable”. The calcium signal ([3]; FP receptor transfected S91 cells) was “did not generate a calcium signal”.
With O=C(O)CCC/C=C\C[C@@H]1[C@@H](/C=C/[C@@H](O)COc2cccc(C(F)(F)F)c2)[C@H](O)C[C@@H]1O (racemic) [fluprostenol] the “tyrosinase (DOPA oxidase) activity” value [4] was “stimulate increased production of tyrosinase; also recorded: dose-dependent effect”, the S91 cell proliferation ([5]; 10^−9 to 10^−5 M, with or without fibroblast co-cultures) was “No effect” and the “concentration at which FP receptor stimulation plateaus” value [6] was “about 10^−8 M”. For the same molecule, the “concentration at which the FP receptor is stimulated (calcium signal)” value [6] was “about 10^−11 M” and the “stimulation of the human FP receptor” value [6] was “stimulate”.
In the case of CCCCC/C=C\C/C=C\C/C=C\C/C=C\CCCC(=O)NCCO [anandamide], the “tyrosinase (DOPA oxidase) activity” value [4] is reported as “no significant increase”.
With CCCCC/C=C\C/C=C\C/C=C\C/C=C\CCCC(=O)O [arachidonic acid] the “tyrosinase (DOPA oxidase) activity” value [4] was “significant increase” and the “tyrosinase (DOPA oxidase) activity” value ([7]; S91 without fibroblasts, increasing concentrations 10^−9 to 10^−5 M, 4 days) was “smaller increase”.
With CC(C)OC(=O)CCC/C=C\C[C@@H]1[C@@H](CC[C@@H](O)CCc2ccccc2)[C@H](O)C[C@@H]1O [latanoprost] the “tyrosinase (DOPA oxidase) activity” value [4] was “stimulate increased production of tyrosinase; also recorded: dose-dependent effect”, the tyrosinase activity ([7]; S91 cells not in transwell cultures, 10^−5 M) was “enhancement” and the DOPA oxidase activity ([7]; S91 cells not in transwell cultures, up to 10^−6 M) was “no appreciable change”. The S91 cell proliferation ([5]; 10^−5 M, with or without fibroblasts) was “decrease”, the S91 cell proliferation ([5]; 10^−9 to 10^−6 M, with or without fibroblasts) was “little effect” and the melanin formation ([8]; 10^−5 M) was “enhancement”. The melanin formation ([8]; up to 10^−6 M) was “no appreciable change”, the “human eyes with increase in brown pigment in the iris” value [9] was 5-15% and the “darkening of the treated eye (iris), score” value [10] was 2. For the same molecule, the “concentration at which FP receptor stimulation plateaus” value [6] was “about 10^−8 M”, the “concentration at which the FP receptor is stimulated (calcium signal)” value [6] was “about 10^−11 M” and the “stimulation of the human FP receptor” value [6] was “stimulate”.
For melanocyte-stimulating hormone [MSH], the “melanogenesis / melanin production” value [1] is listed as “able to simulate melanogenesis”, the activity of tyrosinase [11] is listed as “appears to stimulate” and the “expression or activity of TRP2 and TRP1” value [11] is listed as “does not increase”.
With CCNC(=O)CCC/C=C\C[C@@H]1[C@@H](/C=C/[C@@H](O)CCc2ccccc2)[C@H](O)C[C@@H]1O [Compound A] the “tyrosinase (DOPA oxidase) activity” value [4] was “no significant changes” and the “darkening of the treated eye (iris), score” value [12] was “about 1.1”.
